{"source": "patent US10323022B2", "about": "“Pyrrolidinyl urea, pyrrolidinyl thiourea and pyrrolidinyl guanidine compounds as TrkA kinase inhibitors” (Array BioPharma Inc., priority 2011, dated 2019)", "note": "Structures can show the parent of a compound that is named as a salt.", "data": [{"molecular_target": "TrkA (Homo sapiens (Human), UniProt P04629)", "sequence (P04629 33-796)": "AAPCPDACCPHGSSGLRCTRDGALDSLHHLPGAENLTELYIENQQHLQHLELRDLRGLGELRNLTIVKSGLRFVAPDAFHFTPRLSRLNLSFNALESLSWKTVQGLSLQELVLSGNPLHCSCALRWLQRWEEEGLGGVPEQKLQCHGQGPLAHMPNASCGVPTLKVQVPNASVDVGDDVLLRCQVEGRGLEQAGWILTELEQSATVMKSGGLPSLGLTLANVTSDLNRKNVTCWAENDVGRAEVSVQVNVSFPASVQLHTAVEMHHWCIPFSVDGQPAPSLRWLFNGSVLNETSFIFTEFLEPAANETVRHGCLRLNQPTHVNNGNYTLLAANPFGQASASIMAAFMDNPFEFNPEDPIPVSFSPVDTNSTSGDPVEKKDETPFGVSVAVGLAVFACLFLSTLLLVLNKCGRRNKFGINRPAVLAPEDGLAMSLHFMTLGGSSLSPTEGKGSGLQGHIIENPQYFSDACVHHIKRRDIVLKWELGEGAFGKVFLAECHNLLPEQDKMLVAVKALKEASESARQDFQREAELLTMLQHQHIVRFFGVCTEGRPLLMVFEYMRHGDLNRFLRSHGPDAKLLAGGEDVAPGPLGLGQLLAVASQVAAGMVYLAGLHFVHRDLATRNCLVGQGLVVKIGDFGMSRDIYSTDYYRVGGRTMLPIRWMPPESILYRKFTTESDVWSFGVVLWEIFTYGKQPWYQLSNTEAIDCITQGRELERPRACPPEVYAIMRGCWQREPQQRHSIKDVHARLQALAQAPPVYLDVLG", "test": "TrkA Omnia Assay", "assay_type": "biochemical", "details": "averaged IC50; 20 nM enzyme, 500 μM ATP, 10 μM peptide substrate", "procedure,_shortened": "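Continuous fluorescent kinase read-out (ex 360 nm, em 485 nm) over 70 min, with initial rates fitted to 4- or 5-parameter logistic curves for IC50. Final conditions: 500 μM ATP, 10 μM Omnia Tyr Peptide #4, 20 nM TrkA, MOPS pH 7.5 buffer with MgCl2 and Triton X-100; enzyme and compound preincubated 10 min at ambient temperature.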", "units": {"IC50": "µM"}, "values": [{"smiles": "COCCN1C[C@@H](NC(=O)Nc2c(F)c(-c3ccccc3)nn2C)[C@H](c2ccc(F)c(F)c2)C1", "note": "[Example 168, 1-((3S,4R)-4-(3,4-difluorophenyl)-1-(2-methoxyethyl)pyrrolidin-3-yl)-3-(4-fluoro-1-methyl-3-phenyl-1H-pyrazol-5-yl)urea]", "IC50": "< 0.1"}, {"smiles": "COCCN1C[C@@H](NC(=O)Nc2c(F)c(-c3ccccc3)nn2-c2ccccc2)[C@H](c2ccc(F)c(F)c2)C1", "note": "[Example 169, 1-((3S,4R)-4-(3,4-difluorophenyl)-1-(2-methoxyethyl)pyrrolidin-3-yl)-3-(4-fluoro-1,3-diphenyl-1H-pyrazol-5-yl)urea]", "IC50": "< 0.1"}, {"smiles": "COCCOC(=O)c1ccc(-c2cc(NC(=O)N[C@@H]3CN(CCOC)C[C@H]3c3ccc(F)c(F)c3)n(C)n2)cc1", "note": "[Example 170, 2-methoxyethyl 4-(5-(3-((3S,4R)-4-(3,4-difluorophenyl)-1-(2-methoxyethyl)pyrrolidin-3-yl)ureido)-1-methyl-1H-pyrazol-3-yl)benzoate]", "IC50": "< 0.1"}, {"smiles": "COCCN1C[C@@H](NC(=O)Nc2c3c(nn2-c2ccccc2)CS(=O)(=O)C3)[C@H](c2ccc(F)c(F)c2)C1", "note": "[Example 171, 1-((3S,4R)-4-(3,4-difluorophenyl)-1-(2-methoxyethyl)pyrrolidin-3-yl)-3-(5,5-dioxido-2-phenyl-4,6-dihydro-2H-thieno[3,4-c]pyrazol-3-yl)urea]", "IC50": "< 0.1"}, {"smiles": "COCCN1C[C@@H](NC(=O)Nc2c3c(nn2-c2ccccc2)CS(=O)(=O)C3)[C@H](c2ccccc2)C1", "note": "[Example 172, 1-(5,5-dioxido-2-phenyl-4,6-dihydro-2H-thieno[3,4-c]pyrazol-3-yl)-3-((3S,4R)-1-(2-methoxyethyl)-4-phenylpyrrolidin-3-yl)urea]", "IC50": "< 0.1"}, {"smiles": "COCCN1C[C@@H](NC(=O)Nc2c3c(nn2-c2ccccc2)CS(=O)(=O)C3)[C@H](c2cc(F)cc(F)c2)C1", "note": "[Example 173, 1-((3S,4R)-4-(3,5-difluorophenyl)-1-(2-methoxyethyl)pyrrolidin-3-yl)-3-(5,5-dioxido-2-phenyl-4,6-dihydro-2H-thieno[3,4-c]pyrazol-3-yl)urea]", "IC50": "< 0.1"}, {"smiles": "COCCN1C[C@@H](NC(=O)Nc2c(C)c(OCCS(C)(=O)=O)nn2-c2ccccc2)[C@H](c2ccc(F)c(F)c2)C1", "note": "[Example 174, 1-((3S,4R)-4-(3,4-difluorophenyl)-1-(2-methoxyethyl)pyrrolidin-3-yl)-3-(4-methyl-3-(2-(methylsulfonyl)ethoxy)-1-phenyl-1H-pyrazol-5-yl)urea]", "IC50": "< 0.1"}, {"smiles": "COCCN1C[C@@H](NC(=O)Nc2c(CO)cnn2-c2ccccc2)[C@H](c2ccc(F)c(F)c2)C1", "note": "[Example 175, 1-((3S,4R)-4-(3,4-difluorophenyl)-1-(2-methoxyethyl)pyrrolidin-3-yl)-3-(4-(hydroxymethyl)-1-phenyl-1H-pyrazol-5-yl)urea]", "IC50": "< 0.1"}, {"smiles": "COCCN1C[C@@H](NC(=O)Nc2c(C)c(OC[C@H](O)CO)nn2-c2ccccc2)[C@H](c2ccc(F)c(F)c2)C1", "note": "[Example 176, 1-((3S,4R)-4-(3,4-difluorophenyl)-1-(2-methoxyethyl)pyrrolidin-3-yl)-3-(3-((R)-2,3-dihydroxypropoxy)-4-methyl-1-phenyl-1H-pyrazol-5-yl)urea]", "IC50": "< 0.1"}, {"smiles": "COCCN1C[C@@H](NC(=O)Nc2c(C)c(OC[C@@H](O)CO)nn2-c2ccccc2)[C@H](c2ccc(F)c(F)c2)C1", "note": "[Example 177, 1-((3S,4R)-4-(3,4-difluorophenyl)-1-(2-methoxyethyl)pyrrolidin-3-yl)-3-(3-((S)-2,3-dihydroxypropoxy)-4-methyl-1-phenyl-1H-pyrazol-5-yl)urea]", "IC50": "< 0.1"}, {"smiles": "COCCN1C[C@@H](NC(=O)Nc2c(C)c(OCCO)nn2-c2ccccc2)[C@H](c2ccc(F)c(F)c2)C1", "note": "[Example 178, 1-((3S,4R)-4-(3,4-difluorophenyl)-1-(2-methoxyethyl)pyrrolidin-3-yl)-3-(3-(2-hydroxyethoxy)-4-methyl-1-phenyl-1H-pyrazol-5-yl)urea hydrochloride]", "IC50": "< 0.1"}, {"smiles": "COCCN1C[C@@H](NC(=O)Nc2c(C)c(OC[C@H](C)O)nn2-c2ccccc2)[C@H](c2ccc(F)c(F)c2)C1", "note": "[Example 179, 1-((3S,4R)-4-(3,4-difluorophenyl)-1-(2-methoxyethyl)pyrrolidin-3-yl)-3-(3-((S)-2-hydroxypropoxy)-4-methyl-1-phenyl-1H-pyrazol-5-yl)urea hydrochloride]", "IC50": "< 0.1"}, {"smiles": "COCCN1C[C@@H](NC(=O)Nc2c3c(nn2-c2ccccc2)CCC3)[C@](O)(c2ccccc2)C1", "note": "[Example 180, 1-((3R,4S)-4-hydroxy-1-(2-methoxyethyl)-4-phenylpyrrolidin-3-yl)-3-(2-phenyl-2,4,5,6-tetrahydrocyclopenta[c]pyrazol-3-yl)urea]", "IC50": "1 to 10"}, {"smiles": "COCCN1C[C@@H](NC(=O)Nc2c3c(nn2-c2ccccc2)CCC3)[C@](F)(c2ccccc2)C1", "note": "[Example 181, 1-((3R,4S)-4-fluoro-1-(2-methoxyethyl)-4-phenylpyrrolidin-3-yl)-3-(2-phenyl-2,4,5,6-tetrahydrocyclopenta[c]pyrazol-3-yl)urea]", "IC50": "0.1 to 1"}, {"smiles": "CO[C@@H](C)CN1C[C@@H](NC(=O)Nc2c3c(nn2-c2ccccc2)CCC3)[C@H](c2ccccc2)C1", "note": "[Example 184, 1-((3S,4R)-1-((S)-2-methoxypropyl)-4-phenylpyrrolidin-3-yl)-3-(2-phenyl-2,4,5,6-tetrahydrocyclopenta[c]pyrazol-3-yl)urea]", "IC50": "1 to 10"}, {"smiles": "O=C(Nc1c2c(nn1-c1ccccc1)CCC2)NC1CN(CCCC(F)(F)F)C[C@H]1c1ccccc1", "note": "(stereo partly drawn) [Example 185, 1-((3,4-trans)-4-phenyl-1-(4,4,4-trifluorobutyl)pyrrolidin-3-yl)-3-(2-phenyl-2,4,5,6-tetrahydrocyclopenta[c]pyrazol-3-yl)urea]", "IC50": "0.1 to 1"}, {"smiles": "N#CCN1C[C@@H](NC(=O)Nc2c3c(nn2-c2ccccc2)CCC3)[C@H](c2ccc(F)c(F)c2)C1", "note": "[Example 186, 1-((3S,4R)-1-(cyanomethyl)-4-(3,4-difluorophenyl)pyrrolidin-3-yl)-3-(2-phenyl-2,4,5,6-tetrahydrocyclopenta[c]pyrazol-3-yl)urea]", "IC50": "< 0.1"}, {"smiles": "COCCOc1nn(-c2ccccc2)c(NC(=O)N[C@@H]2CN(CC#N)C[C@H]2c2ccc(F)c(F)c2)c1C", "note": "[Example 187, 1-((3S,4R)-1-(cyanomethyl)-4-(3,4-difluorophenyl)pyrrolidin-3-yl)-3-(3-(2-methoxyethoxy)-4-methyl-1-phenyl-1H-pyrazol-5-yl)urea]", "IC50": "0.1 to 1"}, {"smiles": "N#CCN1C[C@@H](NC(=O)Nc2c3c(nn2-c2ccccc2)CCC3)[C@H](c2ccccc2)C1", "note": "[Example 188, 1-((3,4-trans)-1-(cyanomethyl)-4-phenylpyrrolidin-3-yl)-3-(2-phenyl-2,4,5,6-tetrahydrocyclopenta[c]pyrazol-3-yl)urea]", "IC50": "0.1 to 1"}, {"smiles": "N#CCN1C[C@@H](NC(=O)Nc2c3c(nn2-c2ccccc2)CCC3)[C@H](c2ccccc2)C1", "note": "[Example 189, 1-((3S,4R)-1-(cyanomethyl)-4-phenylpyrrolidin-3-yl)-3-(2-phenyl-2,4,5,6-tetrahydrocyclopenta[c]pyrazol-3-yl)urea]", "IC50": "0.1 to 1"}, {"smiles": "NC(=O)CN1C[C@@H](NC(=O)Nc2c3c(nn2-c2ccccc2)CCC3)[C@H](c2ccccc2)C1", "note": "[Example 190, 2-((3R,4S)-3-phenyl-4-(3-(2-phenyl-2,4,5,6-tetrahydrocyclopenta[c]pyrazol-3-yl)ureido)pyrrolidin-1-yl)acetamide]", "IC50": "1 to 10"}, {"smiles": "Cc1nn(-c2ccccc2)c(NC(=O)N[C@@H]2CN(CCO)C[C@H]2c2ccc(F)c(F)c2)c1C", "note": "[Example 191, 1-((3S,4R)-4-(3,4-difluorophenyvl)-1-(2-hydroxyethyl)pyrrolidin-3-yl)-3-(3,4-dimethyl-1-phenyl-1H-pyrazol-5-yl)urea]", "IC50": "0.1 to 1"}, {"smiles": "O=C(Nc1c2c(nn1-c1ccccc1)CCC2)N[C@@H]1CN(CCC(F)(F)C(F)(F)F)C[C@H]1c1ccccc1", "note": "[Example 192, 1-((trans)-1-(3,3,4,4,4-pentafluorobutyl)-4-phenlpyrrrolidin-3-yl)-3-(2-phenyl-2,4,5,6-tetrahydrocyclopenta[c]pyrazol-3-yl)urea]", "IC50": "0.1 to 1"}, {"smiles": "O=C(Nc1c2c(nn1-c1ccccc1)CCC2)N[C@@H]1CN(CC(F)(F)F)C[C@H]1c1cccc(F)c1", "note": "[Example 200, 1-((3S,4R)-4-(3-fluorophenyl)-1-(2,2,2-trifluoroethyl)pyrrolidin-3-yl)-3-(2-phenyl-2,4,5,6-tetrahydrocyclopenta[c]pyrazol-3-yl)urea]", "IC50": "0.1 to 1"}, {"smiles": "Cc1nn(-c2ccccc2)c(NC(=O)N[C@@H]2CN(CC(F)(F)F)C[C@H]2c2cccc(F)c2)c1C", "note": "[Example 201, 1-(3,4-dimethyl-1-phenyl-1H-pyrazol-5-yl)-3-((3S,4R)-4-(3-fluorophenyl)-1-(2,2,2-trifluoroethyl)pyrrolidin-3-yl)urea]", "IC50": "0.1 to 1"}, {"smiles": "COCCOc1nn(-c2ccccc2)c(NC(=O)N[C@@H]2CN(CC(F)(F)F)C[C@H]2c2cccc(F)c2)c1C", "note": "[Example 202, 1-((3S,4R)-4-(3-fluorophenyl)-1-(2,2,2-trifluoroethyl)pyrrolidin-3-yl)-3-(3-(2-methoxyethoxy)-4-methyl-1-phenyl-1H-pyrazol-5-yl)urea]", "IC50": "< 0.1"}, {"smiles": "Cn1nc(-c2ccccc2)cc1NC(=O)N[C@@H]1CN(CC(F)(F)F)C[C@H]1c1cccc(F)c1", "note": "[Example 203, 1-((3S,4R)-4-(3-fluorophenyl)-1-(2,2,2-trifluoroethyl)pyrrolidin-3-yl)-3-(1-methyl-3-phenyl-H-pyrazol-5-yl)urea]", "IC50": "0.1 to 1"}, {"smiles": "O=C(Nc1c2c(nn1-c1ccccc1)CCC2)N[C@H]1CN(CC(F)(F)F)C[C@@H]1c1cccc(F)c1", "note": "[Example 204, 1-((3R,4S)-4-(3-fluorophenyl)-1-(2,2,2-trifluoroethyl)pyrrolidin-3-yl)-3-(2-phenyl-2,4,5,6-tetrahydrocyclopenta[c]pyrazol-3-yl)urea]", "IC50": "< 0.1"}, {"smiles": "O=C(Nc1c2c(nn1-c1ccccc1)CCC2)N[C@@H]1CN(CC(F)(F)F)CC1c1cccnc1", "note": "(stereo partly drawn) [Example 213, 1-(2-phenyl-2,4,56-tetrahydrocyclopenta[c]pyrazol-3-yl)-3-((trans)-4-(pyridin-3-v)-1-(2,2,2-trifluoroethyl)pyrrolidin-3-yl)urea]", "IC50": "0.1 to 1"}]}]}
